Assay results from patent US4265901A, “2-Oxybenzimidazoline compounds” (priority 1979, dated 1981).
Where “and” joins values, the source holds several entries; their conditions need not be identical. Equal entries are not always repeated. Structures can show the parent of a compound that is named as a salt.

Experiments:
Pigweed [1] = assay: Post-emergence herbicide test, pigweed; format: in vivo, Amaranthus retroflexus
Procedure: (§1) In this evaluation, each compound to be tested was dissolved in a 1:1 mixture of acetone and ethanol containing a small amount of Toximul R and Toximul S (each a sulfonate/nonionic blend produced by Stepan Chemical Company, Northfield, Illinois). The solution was then diluted with deionized water to a composition of the following concentrations, by weight: Plant species used as indicators of herbicidal activity were planted in galvanized pans (flats) 31.5 cm. long, 21.5 cm. wide, and 8.0 cm. deep. The bottoms of the flats had holes to facilitate drainage. The soil used was a 1:1 ratio by volume of masonry sand and shredded top soil. Seeds of seven indicator species were planted in rows perpendicular to the long axis of the flat, one species per row, and covered with 0.5 to 1.0 cm. of sterilized soil. Indicator species and approximate number of seeds planted were as follows: Flats that were to receive preemergence treatments were planted one day prior to, or on the same day treatments were applied. Flats that were to receive postemergence treatments were planted 9 days prior to treatment and placed in a growth chamber until the day of treatment. In the growth chamber, flats received 12 to 18 hours of light per day and were subject to temperatures of 75° to 85° F. The formulated test compound was applied uniformly to the indicator species with a modified DeVilbiss atomizer using air pressure of 3 to 5 psi. Each flat received 12.5 ml. of spray solution which was equal to 200 gallons/acre total spray volume. Plants were maintained in a greenhouse after treatment. Herbicidal effects of chemicals were evaluated by two injury rating systems 18 days after preemergence applications and 14 days after postemergence applications. The degree of plant injury was based on a 1 to 5 scale and a single numerical rating was assigned to each test species as follows: […]

Southern armyworm = Southern armyworm test; format: in vivo, Spodoptera eridania; conditions: 1000 ppm, 4 days; as to Southern Armyworm Stom. (mortality rating): ranges in brackets are in %
Procedure: (§2) In this evaluation, each compound to be tested was dissolved in a 1:1 mixture of acetone and ethanol containing a small amount of Toximul R and Toximul S (each a sulfonate/nonionic blend produced by Stephan Chemical Company, Northfield, Ill.). The solution was then diluted with distilled water to a concentration of 1000 ppm of test compound.
This test was conducted with second to third instar larvae of Spodoptera eridania Cramer, Order Lepidoptera, Family Noctuidae. Uniform larvae (3rd instar) about 1 to 1.2 cm. in length were picked by hand from flats of Henderson lima beans and placed in plastic petri dishes.
The procedure otherwise was the same as used with the Mexican bean beetle reported above, except that 5 ml. of a formulation containing 100 ppm (0.01%) DDT [1,1,1-trichloro-2,2-bis(p-chlorophenyl)ethane] was used as the reference standard.

Corn [2] = assay: Pre-emergence herbicide test, corn; format: in vivo, Zea mays
Procedure: as §1

two-spotted spider mite = assay: Two-spotted spider mite test; format: in vivo, Tetranychus urticae; conditions: 4 days; also: ranges in brackets are in %
Procedure: as §2, with “compound. Lesser concentration formulations were made by diluting a portion of the 1000 ppm solution with distilled water containing 225 mg. of Toximul R and 125 mg. of Toximul S per liter.” for “compound.”
This test was conducted with nymphs and adults of Tetranychus urticae (Koch), Order Acarina, Family Tetranychidae.
This test was run using blue hubbard squash plants which were grown in vermiculite (insulation grade No. 1) in 5 oz. plastic Dixie cups. One cotyledon is removed from each plant to remain in the cups. On retests two plants were left in each cup and on regular initial tests one plant was left in each cup. Each cotyledon is infested by placing a mite infested trifoliate bean leaf on if. Infected plants in cups were held for one day, then sprayed to wetting with formulations containing 1000 ppm of the test compound, using the DeVilbiss atomizer with 5-6 psi air pressure. Retests were run at 100 ppm. Tests were read four days after treatment. Two unsprayed but infested plants were held as a control. Two infested plants were sprayed with a formulation containing 750 ppm of galecron [N'-(4-chloro-o-tolyl)-N,N-dimethylformamidine monohydrochloride] as a reference standard.

Morning-glory = assay: Post-emergence herbicide test, morningglory; format: in vivo, Ipomoea purpurea
Procedure: as §1

Corn [3] = assay: Post-emergence herbicide test, corn; format: in vivo, Zea mays
Procedure: as §1

Zinnia = assay: Pre-emergence herbicide test, zinnia; format: in vivo, Zinnia elegans
Procedure: as §1

Velvetleaf = assay: Pre-emergence herbicide test, velvetleaf; format: in vivo, Abutilon theophrasti
Procedure: as §1

Pigweed [4] = assay: Pre-emergence herbicide test, pigweed; format: in vivo, Amaranthus retroflexus
Procedure: as §1

Large Crabgrass = assay: Pre-emergence herbicide test, large crabgrass; format: in vivo, Digitaria sanguinalis
Procedure: as §1

Foxtail [5] = assay: Post-emergence herbicide test, foxtail; format: in vivo, Setaria italica
Procedure: as §1

Foxtail [6] = assay: Pre-emergence herbicide test, foxtail; format: in vivo, Setaria italica
Procedure: as §1

## O=[N+]([O-])c1cc(C(F)(F)F)cc2c1NC(O)(C(F)(F)C(F)F)N2 (centres unmarked) [Example 2, 2-Hydroxy-2-(1,1,2,2-Tetrafluoroethyl)-4-Nitro-6-(Trifluoromethyl)Benzimidazoline, Sodium Salt, and Hydrate]
Pigweed [1]; 1/2 lb/A
  plant injury rating: 4BS
Pigweed [1]; 1/4 lb/A
  plant injury rating: 3BS
Pigweed [1]; 1 lb/A
  plant injury rating: 5D
Pigweed [1]; 2 lb/A
  plant injury rating: 5D
Pigweed [1]; 4 lb/A
  plant injury rating: 5D
Pigweed [1]; 8 lb/A
  plant injury rating: 5D
Southern armyworm
  Southern Armyworm Stom. (mortality rating): 0 (0)
Corn [2]; 1/2 lb/A
  plant injury rating: 1 (no injury)
Corn [2]; 1/4 lb/A
  plant injury rating: 1 (no injury)
Corn [2]; 1 lb/A
  plant injury rating: 1 (no injury)
Corn [2]; 2 lb/A
  plant injury rating: 1 (no injury)
Corn [2]; 4 lb/A
  plant injury rating: 1 (no injury)
Corn [2]; 8 lb/A
  plant injury rating: 3SB
two-spotted spider mite; 100 ppm
  2-Sp. Spider Mite Cont. (mortality rating): 3 (100)
two-spotted spider mite; 1000 ppm
  2-Sp. Spider Mite Cont. (mortality rating): 3 (100)
Morning-glory; 1/2 lb/A
  plant injury rating: 2B
Morning-glory; 1/4 lb/A
  plant injury rating: 2B
Morning-glory; 2 lb/A
  plant injury rating: 3BS
Morning-glory; 4 lb/A
  plant injury rating: 4BS
Morning-glory; 8 lb/A
  plant injury rating: 5D
Corn [3]; 1/2 lb/A
  plant injury rating: 1 (no injury)
Corn [3]; 1/4 lb/A
  plant injury rating: 1 (no injury)
Corn [3]; 2 lb/A
  plant injury rating: 3BS
Corn [3]; 4 lb/A
  plant injury rating: 3BS
Corn [3]; 8 lb/A
  plant injury rating: 5D
Zinnia; 1/2 lb/A
  plant injury rating: 1 (no injury)
Zinnia; 1/4 lb/A
  plant injury rating: 1 (no injury)
Zinnia; 1 lb/A
  plant injury rating: 1 (no injury)
Zinnia; 2 lb/A
  plant injury rating: 2S
Zinnia; 4 lb/A
  plant injury rating: 4BS
Zinnia; 8 lb/A
  plant injury rating: 5D
Velvetleaf; 1/2 lb/A
  plant injury rating: 1 (no injury)
Velvetleaf; 1/4 lb/A
  plant injury rating: 1 (no injury)
Velvetleaf; 1 lb/A
  plant injury rating: 1 (no injury)
Velvetleaf; 2 lb/A
  plant injury rating: 2S
Velvetleaf; 4 lb/A
  plant injury rating: 4BS
Velvetleaf; 8 lb/A
  plant injury rating: 5D
Pigweed [4]; 1/2 lb/A
  plant injury rating: 2S
Pigweed [4]; 1/4 lb/A
  plant injury rating: 1 (no injury)
Pigweed [4]; 2 lb/A
  plant injury rating: 4SR
Pigweed [4]; 4 lb/A
  plant injury rating: 4RS
Pigweed [4]; 8 lb/A
  plant injury rating: 5D
Large Crabgrass; 1/2 lb/A
  plant injury rating: 1 (no injury)
Large Crabgrass; 1/4 lb/A
  plant injury rating: 1 (no injury)
Large Crabgrass; 1 lb/A, Hydrate
  plant injury rating: 3S and 2S
Large Crabgrass; 2 lb/A
  plant injury rating: 4RS
Large Crabgrass; 4 lb/A
  plant injury rating: 4RS
Large Crabgrass; 8 lb/A
  plant injury rating: 5N
Foxtail [5]; 1/2 lb/A
  plant injury rating: 3BS
Foxtail [5]; 1/4 lb/A
  plant injury rating: 3BS
Foxtail [5]; 1 lb/A
  plant injury rating: 4BS
Foxtail [5]; 2 lb/A
  plant injury rating: 4BS
Foxtail [5]; 4 lb/A
  plant injury rating: 4BS
Foxtail [5]; 8 lb/A
  plant injury rating: 5D
Foxtail [6]; 1/2 lb/A
  plant injury rating: 1 (no injury)
Foxtail [6]; 1/4 lb/A
  plant injury rating: 1 (no injury)
Foxtail [6]; 1 lb/A
  plant injury rating: 1 (no injury)
Foxtail [6]; 2 lb/A
  plant injury rating: 2S
Foxtail [6]; 4 lb/A
  plant injury rating: 2S
Foxtail [6]; 8 lb/A
  plant injury rating: 5N

## O=[N+]([O-])c1cc(Cl)cc2c1NC(O)(C(F)F)N2 (centres unmarked) [Example 5, 2-Hydroxy-2-(Difluoromethyl)-4-Nitro-6-Chlorobenzimidazoline, Calcium Salt]
Pigweed [1]; 1 lb/A
  plant injury rating: 2S
Pigweed [1]; 2 lb/A
  plant injury rating: 3BS
Pigweed [1]; 4 lb/A
  plant injury rating: 3BS
Pigweed [1]; 8 lb/A
  plant injury rating: 4BS
Southern armyworm
  Southern Armyworm Feed. (feeding rating): 1 (1-50% of the leaves eaten)
Southern armyworm; Calcium Salt
  Southern Armyworm Stom. (mortality rating): 3 (100) and 2 (51-99)
Corn [2]; 8 lb/A
  plant injury rating: 1 (no injury)
two-spotted spider mite; 1000 ppm
  2-Sp. Spider Mite Cont. (mortality rating): 3 (100)
Morning-glory; 1 lb/A
  plant injury rating: 2BS
Morning-glory; 2 lb/A
  plant injury rating: 2BS
Morning-glory; 4 lb/A
  plant injury rating: 3BS
Morning-glory; 8 lb/A
  plant injury rating: 4BS
Corn [3]; 1 lb/A
  plant injury rating: 1 (no injury)
Corn [3]; 2 lb/A
  plant injury rating: 2B
Corn [3]; 4 lb/A
  plant injury rating: 4BS
Corn [3]; 8 lb/A
  plant injury rating: 5D
Zinnia; 8 lb/A
  plant injury rating: 4R
Velvetleaf; 8 lb/A
  plant injury rating: 3RS
Pigweed [4]; 8 lb/A
  plant injury rating: 2S
Large Crabgrass; 8 lb/A
  plant injury rating: 3RS
Foxtail [5]; 1 lb/A
  plant injury rating: 4BS
Foxtail [5]; 2 lb/A
  plant injury rating: 4BS
Foxtail [5]; 4 lb/A
  plant injury rating: 3BS
Foxtail [5]; 8 lb/A
  plant injury rating: 5D
Foxtail [6]; 8 lb/A
  plant injury rating: 3R

## O=[N+]([O-])c1cc(C(F)(F)F)cc2c1NC(O)(C(F)(F)C(F)F)N2O (centres unmarked) [Example 12, 1,2-Dihydroxy-2-(1,1,2,2-Tetrafluoroethyl)-4-Nitro-6-(Trifluoromethyl)Benzimidazoline]
Pigweed [1]; 1/4 lb/A
  plant injury rating: 3BS
Pigweed [1]; 1/8 lb/A
  plant injury rating: 3BS
Pigweed [1]; 1 lb/A
  plant injury rating: 5D
Pigweed [1]; 2 lb/A
  plant injury rating: 5D
Pigweed [1]; 8 lb/A
  plant injury rating: 5D
Southern armyworm
  Southern Armyworm Stom. (mortality rating): 0 (0)
Corn [2]; 1/2 lb/A
  plant injury rating: 1 (no injury)
Corn [2]; 1 lb/A
  plant injury rating: 1 (no injury)
Corn [2]; 2 lb/A
  plant injury rating: 1 (no injury)
Corn [2]; 8 lb/A
  plant injury rating: 1 (no injury)
two-spotted spider mite; 1000 ppm
  2-Sp. Spider Mite Cont. (mortality rating): 3 (100)
Morning-glory; 1/4 lb/A
  plant injury rating: 1 (no injury)
Morning-glory; 1/8 lb/A
  plant injury rating: 1 (no injury)
Morning-glory; 1 lb/A
  plant injury rating: 3BS
Morning-glory; 2 lb/A
  plant injury rating: 3BS
Morning-glory; 8 lb/A
  plant injury rating: 2B
Corn [3]; 1/4 lb/A
  plant injury rating: 1 (no injury)
Corn [3]; 1/8 lb/A
  plant injury rating: 1 (no injury)
Corn [3]; 1 lb/A
  plant injury rating: 1 (no injury)
Corn [3]; 2 lb/A
  plant injury rating: 2B
Corn [3]; 8 lb/A
  plant injury rating: 1 (no injury)
Zinnia; 1/2 lb/A
  plant injury rating: 1 (no injury)
Zinnia; 1 lb/A
  plant injury rating: 1 (no injury)
Zinnia; 2 lb/A
  plant injury rating: 1 (no injury)
Zinnia; 8 lb/A
  plant injury rating: 4RS
Velvetleaf; 1/2 lb/A
  plant injury rating: 1 (no injury)
Velvetleaf; 1 lb/A
  plant injury rating: 1 (no injury)
Velvetleaf; 2 lb/A
  plant injury rating: 1 (no injury)
Velvetleaf; 8 lb/A
  plant injury rating: 3BS
Pigweed [4]; 1/2 lb/A
  plant injury rating: 1 (no injury)
Pigweed [4]; 1 lb/A
  plant injury rating: 3S
Pigweed [4]; 2 lb/A
  plant injury rating: 4S
Pigweed [4]; 8 lb/A
  plant injury rating: 5N
Large Crabgrass; 1/2 lb/A
  plant injury rating: 1 (no injury)
Large Crabgrass; 1 lb/A
  plant injury rating: 2S
Large Crabgrass; 2 lb/A
  plant injury rating: 4SB
Large Crabgrass; 8 lb/A
  plant injury rating: 4RS
Foxtail [5]; 1/4 lb/A
  plant injury rating: 2B
Foxtail [5]; 1/8 lb/A
  plant injury rating: 2S
Foxtail [5]; 1 lb/A
  plant injury rating: 4BS
Foxtail [5]; 2 lb/A
  plant injury rating: 4BS
Foxtail [5]; 8 lb/A
  plant injury rating: 3BS
Foxtail [6]; 1/2 lb/A
  plant injury rating: 1 (no injury)
Foxtail [6]; 1 lb/A
  plant injury rating: 1 (no injury)
Foxtail [6]; 2 lb/A
  plant injury rating: 1 (no injury)
Foxtail [6]; 8 lb/A
  plant injury rating: 2S
